Assay results reported in US9963674B2, “Age-modified cells and methods for making age-modified cells” (Memorial Sloan-Kettering Cancer Center, priority 2013, dated 2018).

Legend:
iPSC-derived mDA neurons = assay: Progerin modified-RNA overexpression in iPSC-derived mDA neurons, age-associated markers; format: cell-based, human
Protocol: The following is a protocol for progerin overexpression using modified-RNA in differentiating or differentiated iPSC-derived cells: • 1. Prepare progerin-modified-RNA (methods of synthesis are described in Example 9) and deliver to iPSC-derived somatic cells using Lipofectamine RNAiMAX (Life Technologies) and incubate • a. For iPSC-derived fibroblasts repeat transfection for 3 consecutive days. • i. Note: Amount/duration combination optimizes treatment for minimal toxicity and earliest significant effects. • b. For iPSC-derived dopamine neurons repeat transfection for 5 consecutive days. • i. Note: Amount/duration combination optimizes treatment for minimal toxicity and earliest significant effects. • c. For other iPSC-derived somatic cells perform pilot experiments to determine amount and duration of progerin modified-RNA. • d. Analyze maturation and/or age-associated phenotypes. • Alternatively, expression of progerin can also be achieved through the use of temperature-sensitive Sendai virus expressing progerin. Additionally, expression of progerin can be achieved by using lentivirus.
For overexpression experiments, modified-RNA was thawed on ice and adjusted to a working concentration of 100 ng/μl. Per 100,000-cell transfection, 200 ng of modified-RNA was diluted up to 10 μl in Opti-MEM medium (Life Technologies), vortexed, and incubated at room temperature for 10 minutes. In a separate tube, 0.6 μl Lipofectamine RNAiMAX® (Life Technologies) was diluted up to 10 μl in Opti-MEM and incubated for the same timeframe. The Lipofectamine mixture was then transferred to the tube containing the modified-RNA mixture, vortexed and incubated for an additional 10 minutes. The transfection mixture was added dropwise to cells that had been pre-treated with 200 ng/ml of the interferon inhibitor B18R (eBioscience, San Diego, Calif.) for at least 4 hours prior to transfection.
After 4 hours at 37° C., the entire suspension was replaced with fresh medium supplemented with B18R. Transfection of iPSC-derived fibroblasts was performed starting on day 50 of differentiation and repeated on 2 consecutive days thereafter. iPSC-derived mDA neurons were transfected starting on day 65 or day 120 of differentiation and repeated on 4 consecutive days thereafter. The additional 2 days of transfections were done in order to establish a phenotype in iPSC-derived mDA neurons. Cells were analyzed one day after the final transfection.
Cells were fixed in 4% paraformaldehyde for 15 minutes. Blocking was performed in phosphate-buffered saline supplemented with 1% BSA, and 0.3% Triton X-100 for 30 minutes to 1 hour. Cells were stained overnight at 4° C. with primary antibodies diluted in blocking buffer. Following several washes, cells were stained with appropriate Alexa Fluor-labeled secondary antibodies (Molecular Probes, Carlsbad, Calif.) at 1:500 in blocking buffer for 30 minutes to 3 hours at room temperature. Cells were counterstained with 4′,6-diamidino-2-phenylindole (DAPI; Thermo Fisher, Rockford, Ill.) to visualize nuclei. Images were acquired with an Olympus IX81 microscope using a Hamamatsu ORCA CCD camera.
Passage-matched cells were scored from three independent experiments. Where necessary due to bias against progerin-positive cells, images were processed using ImageJ software (version 1.43u, NIH). In these cases, 50 cells per condition were assessed for each independent experiment. Data are presented as mean±standard error of means (SEM). […]

[1] = system: iPSC-derived mDA neuron grafts in NOD-SCID IL2Rgc-null mice; assay: Ultrastructural analysis of grafts by transmission electron microscopy; format: in vivo; conditions: six months, PD-derived grafts overexpressing progerin
Protocol: Procedures were performed according to (Milner et al., Methods Mol Biol 793:23-59 (2011)). Briefly, six months following transplantation of human iPSC-derived mDA neurons, mice were overdosed with 150 mg/kg sodium pentobarbital intraperitoneally. The brains were fixed by aortic arch perfusion sequentially with normal saline (0.9%) containing 1000 units/ml of Heparin, 50 ml of 3.75% acrolein and 2% paraformaldehyde in 0.1 M phosphate buffer (PB, pH 7.4), and 200 ml of 2% PFA in PB. The brains were removed and post-fixed with 1.87% acrolein/2% PFA in PB for 30 minutes at room temperature. Coronal tissue blocks were sectioned (40 μm) on a vibrating microtome (Leica Microsystems, Deerfield, Ill.). Selected sections containing the xenograft were pretreated in 1% sodium borohydride. Non-specific binding was blocked with 0.5% BSA 0.1 M Tris-saline (TS, pH 7.6). Primary antibodies (see Table S4) were diluted in 0.1% BSA in TS and incubated overnight at 4° C. Sections were incubated with a biotinylated secondary antibody (Jackson ImmunoResearch, West Grove, Pa.) for 30 minutes at room temperature. […] The number of TH-immunogold particles per μm^2 in 25 dendrites per group and the area (μm^2) quantification of 25 mitochondria per group were performed using ImageJ.

[2] = modified-RNA 5 days, GFP-positive mDA neurons

“GFP-progerin: progerin (truncated lamin A) fused to GFP, SEQ ID No. 2, overexpressed via modified-RNA or hSyn lentivirus” was tested, and the “phenotype after acute 3-day overexpression” value (iPSC-derived mDA neurons; modified-RNA 3 days, iPSC-derived mDA neurons) was “no obvious phenotype”, the “DNA damage (γH2AX foci)” value (iPSC-derived mDA neurons; [2]) was “increased accumulation of DNA damage” and the “nuclear folding and blebbing” value (iPSC-derived mDA neurons; [2]) was “enhanced nuclear folding and blebbing”. For the same substance, the “LAP2α, H3K9me3 and HP1γ immunocytochemistry” value (iPSC-derived mDA neurons; modified-RNA 5 days, iPSC-mDA neurons, GFP-progerin vs nuclear-GFP) was “no difference”, the mitochondrial superoxide (iPSC-derived mDA neurons; modified-RNA 5 days, mDA neurons) was “signs of mitochondrial dysfunction” and the “fibrillar bodies (neurite degeneration)” value [1] was “prominent”.
